Data from ChEMBL document CHEMBL4041547, “Novel Potentiators for Vancomycin in the Treatment of Biofilm-Related MRSA Infections via a Mix and Match Approach” (ACS Med Chem Lett, 2017).
Activity calls are given as the source filed them. The calls are words filed in the database; no cut-off is given here.

Assays:
Staphylococcus aureus [1] = test: Growth inhibition of methicillin-resistant Staphylococcus aureus Mu50
[2] = target: T1, Signal transduction protein TRAP (Staphylococcus aureus (strain Mu50 / ATCC 700699)) (UniProt Q7A2Q4); test: Inhibition of methicillin-resistant Staphylococcus aureus Mu50 TRAP assessed as potentiation of vancomycin-induced antibiofilm activity by measuring vancomycin-mediated reduction in colony forming units at 25 uM pretreated for 4 hrs prior to vancomycin addition measured after 20 hrs (reference value: 30 +/- 14%); details: Staphylococcus aureus subsp. aureus Mu50
T1 sequence (whole entry): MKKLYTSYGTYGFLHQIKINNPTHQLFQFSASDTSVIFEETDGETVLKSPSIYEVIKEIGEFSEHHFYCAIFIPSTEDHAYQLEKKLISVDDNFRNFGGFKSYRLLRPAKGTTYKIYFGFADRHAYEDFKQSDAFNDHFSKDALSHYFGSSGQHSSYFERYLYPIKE

[3] = target: T1, Signal transduction protein TRAP (Staphylococcus aureus (strain Mu50 / ATCC 700699)); test: Inhibition of methicillin-resistant Staphylococcus aureus Mu50 TRAP assessed as potentiation of vancomycin-induced antibiofilm activity by measuring vancomycin-mediated reduction in colony forming units at 25 uM cotreated with vancomycin for 24 hrs (reference value: 30 +/- 14%); details: Staphylococcus aureus subsp. aureus Mu50
Staphylococcus aureus [4] = test: Antibiofilm activity against methicillin-resistant Staphylococcus aureus Mu50 at 100 uM; format: functional
Staphylococcus aureus [5] = test: Inhibition of methicillin-resistant Staphylococcus aureus JE2 TRAP assessed as reduction in vancomycin MIC at 100 uM
[6] = target: T1, Signal transduction protein TRAP (Staphylococcus aureus (strain Mu50 / ATCC 700699)); test: Inhibition of methicillin-resistant Staphylococcus aureus Mu50 TRAP assessed as reduction in vancomycin MIC at 100 uM; details: Staphylococcus aureus subsp. aureus Mu50
Staphylococcus aureus [7] = test: Antibiofilm activity against methicillin-resistant Staphylococcus aureus JE2 at 100 uM; format: functional
[8] = Drug metabolism assessed as UGT-mediated compound degradation in human liver microsomes at 5 uM using UDPGA as cofactor by UPLC-MS/MS analysis; format: ADME
[9] = Drug metabolism assessed as CYP450-mediated compound degradation in human liver microsomes at 5 uM using NADPH as cofactor by UPLC-MS/MS analysis; format: ADME
Plasma = test: Metabolic stability in human plasma by UPLC-MS/MS analysis; format: ADME, cell-free

Structure (SMILES) | MIC (Staphylococcus aureus [1]) [µM] | inhibition [2] [%] | inhibition [3] [%] | further results
O=C(NC[C@]1(O)CO[C@H](CNC(=O)c2ccccc2Cl)[C@H]1O)c1ccoc1 | > 500 | 58 | 50 | 
O=C(NC[C@H]1OC[C@@](O)(CN2Cc3ccccc3C2=O)[C@@H]1O)c1ccccc1Cl | > 500 | 92 | 73 | 
O=C(NC[C@]1(O)CO[C@H](CNC(=O)c2ccccc2Cl)[C@H]1O)c1ccccc1 | > 500 | 85 | 80 | 
O=C(NC[C@H]1OC[C@@](O)(CNCc2ccccc2)[C@@H]1O)c1ccccc1Cl | > 500 | 94 | 89 | 
O=C(CCc1ccccc1)NC[C@]1(O)CO[C@H](CNC(=O)c2ccccc2Cl)[C@H]1O | > 500 | 35 | 18 | 
O=C(NC[C@]1(O)CO[C@H](CNC(=O)c2ccccc2Cl)[C@H]1O)Nc1ccccc1 | > 500 | 67 | 58 | 
O=C(NC[C@H]1OC[C@@](O)(CNS(=O)(=O)c2ccccc2)[C@@H]1O)c1ccccc1Cl | > 500 | 65 | 44 | 
[N-]=[N+]=NC[C@]1(O)CO[C@H](CNC(=O)c2ccccc2Cl)[C@H]1O | > 500 | 87 | 88 | 
O=C(NC[C@]1(O)CO[C@H](CNC(=O)c2ccccc2Cl)[C@H]1O)c1ccc(Cl)cc1 | > 500 | 39 | 43 | 
Cc1ccc(C(=O)NC[C@]2(O)CO[C@H](CNC(=O)c3ccccc3Cl)[C@H]2O)cc1 | > 500 | 48 | 58 | 
O=C(NC[C@]1(O)CO[C@H](CNC(=O)c2ccccc2Cl)[C@H]1O)c1cncnc1 | > 500 | 36 | 35 | 
O=C(OC[C@H]1OC(O)[C@@](O)(COC(=O)c2cc(O)c(O)c(O)c2)[C@@H]1O)c1cc(O)c(O)c(O)c1 (some centres undefined) [HAMAMELITANNIN] | > 500 | 35 | 31 | 
CC(=O)NC[C@]1(O)CO[C@H](CNC(=O)c2ccccc2Cl)[C@H]1O | > 500 | 70 | 82 | 
O=C(NC[C@H]1OC[C@@](O)(CNC(=O)C2CCCCC2)[C@@H]1O)c1ccccc1Cl | > 500 | 85 | 55 | 
O=C(NC[C@H]1OC[C@H](O)[C@@H]1O)c1ccccc1Cl | > 500 | 80 | 81 | 
O=C(NC[C@]1(O)CO[C@H](CN2C(=O)c3ccccc3C2=O)[C@H]1O)c1ccnnc1 |  |  |  | Activity (Staphylococcus aureus [4]): inactive; inhibition (Staphylococcus aureus [5]): inactive; inhibition [6]: inactive; Activity (Staphylococcus aureus [7]): inactive
COc1ccc(C(=O)NC[C@]2(O)CO[C@H](CNC(=O)c3ccccc3Cl)[C@H]2O)cc1 | > 500 | 34 | 43 | 
CN[C@H](CC(C)C)C(=O)N[C@H]1C(=O)N[C@@H](CC(N)=O)C(=O)N[C@H]2C(=O)N[C@H]3C(=O)N[C@H](C(=O)N[C@H](C(=O)O)c4cc(O)cc(O)c4-c4cc3ccc4O)[C@H](O)c3ccc(c(Cl)c3)Oc3cc2cc(c3O[C@@H]2O[C@H](CO)[C@@H](O)[C@H](O)[C@H]2O[C@H]2C[C@](C)(N)[C@H](O)[C@H](C)O2)Oc2ccc(cc2Cl)[C@H]1O |  | 30 | 30 | 
O=C(NC[C@]1(O)CO[C@H](CN2C(=O)c3ccccc3C2=O)[C@H]1O)c1ccccc1Cl |  |  |  | Stability [8]: Stable; Activity (Staphylococcus aureus [4]): inactive; Stability [9]: Unstable; inhibition (Staphylococcus aureus [5]): inactive; inhibition [6]: inactive; Stability (Plasma): Stable; Activity (Staphylococcus aureus [7]): inactive
O=C(NC[C@]1(O)CO[C@H](CNC(=O)c2ccccc2Cl)[C@H]1O)c1ccccc1F | > 500 | 38 | 56 | 
